Structures can show the parent of a compound that is named as a salt.
Columns and labels:
Histaminergic H3 = Histaminergic H3 (Homo sapiens, UniProt Q9Y5N1); experiment: competitive radioligand binding, Histaminergic H3; details: compound concentration of 1 μM; read-out: radio-labelled ligand displacement, Histaminergic H3
How it was run: (§1)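 Test compounds were applied at 1 μM in competitive binding format, and activity was determined by measuring how much radio-labelled ligand they displaced from the target.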

Dopaminergic D3 = Dopaminergic D3 (Homo sapiens, UniProt P35462); experiment: competitive radioligand binding, Dopaminergic D3; details: compound concentration of 1 μM; read-out: radio-labelled ligand displacement, Dopaminergic D3
Dopaminergic D3, sequence (P35462 whole entry): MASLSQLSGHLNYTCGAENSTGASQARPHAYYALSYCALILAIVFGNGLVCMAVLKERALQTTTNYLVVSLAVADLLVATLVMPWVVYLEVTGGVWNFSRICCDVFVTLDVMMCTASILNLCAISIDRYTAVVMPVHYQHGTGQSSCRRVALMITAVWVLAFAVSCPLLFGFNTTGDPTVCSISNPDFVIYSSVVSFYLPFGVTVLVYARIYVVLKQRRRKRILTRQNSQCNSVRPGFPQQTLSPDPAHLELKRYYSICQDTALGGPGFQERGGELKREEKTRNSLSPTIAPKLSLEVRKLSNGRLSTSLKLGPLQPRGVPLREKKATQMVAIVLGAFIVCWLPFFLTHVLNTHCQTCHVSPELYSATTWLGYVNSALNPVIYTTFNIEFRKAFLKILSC
How it was run: as §1

Dopaminergic D2S = Dopaminergic D2S (Homo sapiens, UniProt P14416); experiment: competitive radioligand binding, Dopaminergic D2S; details: compound concentration of 1 μM; read-out: radio-labelled ligand displacement, Dopaminergic D2S
Dopaminergic D2S, sequence (P14416 1-414 isoform P14416-2): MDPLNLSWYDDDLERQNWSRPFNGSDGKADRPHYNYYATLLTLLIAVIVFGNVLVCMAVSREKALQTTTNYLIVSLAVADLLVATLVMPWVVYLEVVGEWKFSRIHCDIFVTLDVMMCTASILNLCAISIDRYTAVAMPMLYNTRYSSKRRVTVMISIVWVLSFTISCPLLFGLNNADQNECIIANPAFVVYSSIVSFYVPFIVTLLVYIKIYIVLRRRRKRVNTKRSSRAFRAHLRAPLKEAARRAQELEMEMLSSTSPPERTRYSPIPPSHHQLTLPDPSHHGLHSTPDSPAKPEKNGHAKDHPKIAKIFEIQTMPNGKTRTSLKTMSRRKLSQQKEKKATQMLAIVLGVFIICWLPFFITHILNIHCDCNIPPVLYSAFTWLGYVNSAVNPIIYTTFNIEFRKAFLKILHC
How it was run: as §1

Adrenergic α1D = target: T1, Adrenergic α1D (Homo sapiens, UniProt P25100); experiment: competitive radioligand binding, Adrenergic α1D; details: compound concentration of 1 μM; read-out: radio-labelled ligand displacement, Adrenergic α1D
T1 sequence (P25100 1-572): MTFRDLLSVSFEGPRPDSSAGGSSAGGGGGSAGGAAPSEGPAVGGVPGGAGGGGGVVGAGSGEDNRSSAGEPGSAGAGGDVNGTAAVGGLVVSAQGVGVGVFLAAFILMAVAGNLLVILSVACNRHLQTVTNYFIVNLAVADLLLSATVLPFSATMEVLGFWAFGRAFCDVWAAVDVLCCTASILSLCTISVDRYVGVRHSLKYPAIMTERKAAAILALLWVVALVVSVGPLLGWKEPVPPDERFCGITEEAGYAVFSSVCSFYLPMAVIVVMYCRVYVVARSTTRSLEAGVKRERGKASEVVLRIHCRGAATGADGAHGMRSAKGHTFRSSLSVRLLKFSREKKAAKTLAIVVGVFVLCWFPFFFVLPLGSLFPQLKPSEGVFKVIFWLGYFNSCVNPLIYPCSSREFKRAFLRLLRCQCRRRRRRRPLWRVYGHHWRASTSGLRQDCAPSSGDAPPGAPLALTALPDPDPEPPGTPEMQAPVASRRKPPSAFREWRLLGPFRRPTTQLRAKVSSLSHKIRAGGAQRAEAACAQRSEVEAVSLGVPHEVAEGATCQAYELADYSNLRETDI
How it was run: as §1

Adrenergic α1B = experiment: competitive radioligand binding, Adrenergic α1B; details: compound concentration of 1 μM
How it was run: as §1

Dopaminergic D2L = Dopaminergic D2L (Homo sapiens, UniProt P14416); experiment: competitive radioligand binding, Dopaminergic D2L; details: compound concentration of 1 μM; read-out: radio-labelled ligand displacement, Dopaminergic D2L
Dopaminergic D2L, sequence (P14416 whole entry): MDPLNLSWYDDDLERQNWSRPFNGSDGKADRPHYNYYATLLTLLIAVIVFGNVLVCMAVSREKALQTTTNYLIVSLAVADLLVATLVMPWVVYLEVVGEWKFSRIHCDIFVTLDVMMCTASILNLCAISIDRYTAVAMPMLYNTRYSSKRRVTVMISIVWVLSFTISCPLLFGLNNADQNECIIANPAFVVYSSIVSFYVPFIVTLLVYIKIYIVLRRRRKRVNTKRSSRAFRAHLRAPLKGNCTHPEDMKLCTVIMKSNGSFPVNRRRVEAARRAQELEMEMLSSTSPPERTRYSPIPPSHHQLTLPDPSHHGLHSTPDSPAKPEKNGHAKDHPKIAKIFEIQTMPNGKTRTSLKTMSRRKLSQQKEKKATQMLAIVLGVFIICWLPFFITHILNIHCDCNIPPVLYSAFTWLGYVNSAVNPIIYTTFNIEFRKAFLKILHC
How it was run: as §1

Serotoninergic 5-HT1B = experiment: competitive radioligand binding, Serotoninergic 5-HT1B; details: compound concentration of 1 μM
How it was run: as §1

Serotoninergic 5-HT2B = Serotoninergic 5-HT2B (Homo sapiens, UniProt P41595); experiment: competitive radioligand binding, Serotoninergic 5-HT2B; details: read-out: radio-labelled ligand displacement, Serotoninergic 5-HT2B
Serotoninergic 5-HT2B, sequence (P41595 whole entry): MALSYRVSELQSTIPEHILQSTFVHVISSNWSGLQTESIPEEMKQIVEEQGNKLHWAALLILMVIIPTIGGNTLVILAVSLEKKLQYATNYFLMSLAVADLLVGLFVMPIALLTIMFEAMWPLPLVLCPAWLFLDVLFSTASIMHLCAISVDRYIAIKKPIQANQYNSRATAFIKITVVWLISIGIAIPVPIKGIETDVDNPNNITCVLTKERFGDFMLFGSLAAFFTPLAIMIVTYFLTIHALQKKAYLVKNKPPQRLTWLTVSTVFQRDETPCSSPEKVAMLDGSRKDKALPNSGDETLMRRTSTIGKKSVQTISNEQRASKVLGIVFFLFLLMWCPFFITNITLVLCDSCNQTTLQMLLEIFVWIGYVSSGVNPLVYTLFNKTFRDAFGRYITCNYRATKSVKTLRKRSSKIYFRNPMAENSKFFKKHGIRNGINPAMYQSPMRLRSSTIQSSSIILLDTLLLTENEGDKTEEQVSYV
How it was run: as §1

Dopaminergic D1 = Dopaminergic D1 (Homo sapiens, UniProt P21728); experiment: competitive radioligand binding, Dopaminergic D1; details: compound concentration of 1 μM; read-out: radio-labelled ligand displacement, Dopaminergic D1
Dopaminergic D1, sequence (P21728 whole entry): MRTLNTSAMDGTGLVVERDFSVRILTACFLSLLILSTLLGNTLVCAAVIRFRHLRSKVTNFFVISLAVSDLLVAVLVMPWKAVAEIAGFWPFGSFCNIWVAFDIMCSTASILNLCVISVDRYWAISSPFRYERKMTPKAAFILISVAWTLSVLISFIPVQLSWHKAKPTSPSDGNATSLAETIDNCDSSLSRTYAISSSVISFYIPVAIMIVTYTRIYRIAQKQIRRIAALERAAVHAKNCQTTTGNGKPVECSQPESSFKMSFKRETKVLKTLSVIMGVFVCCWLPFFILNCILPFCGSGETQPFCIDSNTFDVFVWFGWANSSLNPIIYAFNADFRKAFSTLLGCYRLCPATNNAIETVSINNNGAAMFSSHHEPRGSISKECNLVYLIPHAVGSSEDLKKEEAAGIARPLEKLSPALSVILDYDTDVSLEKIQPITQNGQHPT
How it was run: as §1

Serotoninergic 5-HT7 = Serotoninergic 5-HT7 (Homo sapiens, UniProt P34969); experiment: competitive radioligand binding, Serotoninergic 5-HT7; details: compound concentration of 1 μM; read-out: radio-labelled ligand displacement, Serotoninergic 5-HT7
Serotoninergic 5-HT7, sequence (P34969 whole entry): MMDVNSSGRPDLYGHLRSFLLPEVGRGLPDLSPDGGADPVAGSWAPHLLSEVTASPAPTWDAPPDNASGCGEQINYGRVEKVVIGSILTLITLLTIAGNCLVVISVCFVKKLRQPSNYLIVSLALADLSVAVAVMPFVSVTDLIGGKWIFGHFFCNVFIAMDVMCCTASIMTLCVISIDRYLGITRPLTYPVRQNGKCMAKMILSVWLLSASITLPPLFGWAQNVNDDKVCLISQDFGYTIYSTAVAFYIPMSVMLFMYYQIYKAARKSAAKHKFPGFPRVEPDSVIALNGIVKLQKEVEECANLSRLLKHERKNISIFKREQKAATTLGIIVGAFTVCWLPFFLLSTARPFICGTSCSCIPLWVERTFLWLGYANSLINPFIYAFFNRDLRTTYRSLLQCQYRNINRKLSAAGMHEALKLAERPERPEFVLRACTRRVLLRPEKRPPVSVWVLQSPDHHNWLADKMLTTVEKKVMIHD
How it was run: as §1

Serotoninergic 5-HT6 = Serotoninergic 5-HT6 (Homo sapiens, UniProt P50406); experiment: competitive radioligand binding, Serotoninergic 5-HT6; details: compound concentration of 1 μM; read-out: radio-labelled ligand displacement, Serotoninergic 5-HT6
Serotoninergic 5-HT6, sequence (P50406 whole entry): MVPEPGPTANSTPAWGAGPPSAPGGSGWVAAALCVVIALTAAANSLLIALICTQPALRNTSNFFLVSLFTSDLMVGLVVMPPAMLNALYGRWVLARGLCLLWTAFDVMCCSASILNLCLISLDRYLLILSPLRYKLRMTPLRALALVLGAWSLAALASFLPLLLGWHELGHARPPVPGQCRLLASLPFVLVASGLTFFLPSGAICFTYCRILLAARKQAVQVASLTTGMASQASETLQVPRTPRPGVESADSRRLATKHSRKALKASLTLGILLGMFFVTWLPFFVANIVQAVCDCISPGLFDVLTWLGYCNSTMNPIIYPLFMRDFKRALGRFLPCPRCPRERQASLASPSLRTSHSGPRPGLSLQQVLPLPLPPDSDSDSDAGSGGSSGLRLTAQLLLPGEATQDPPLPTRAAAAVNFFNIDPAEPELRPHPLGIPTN
How it was run: as §1

Serotoninergic 5-HT2C = target: T2, Serotoninergic 5-HT2C (Homo sapiens, UniProt P28335); experiment: competitive radioligand binding, Serotoninergic 5-HT2C; details: read-out: radio-labelled ligand displacement, Serotoninergic 5-HT2C
T2 sequence (P28335 33-458): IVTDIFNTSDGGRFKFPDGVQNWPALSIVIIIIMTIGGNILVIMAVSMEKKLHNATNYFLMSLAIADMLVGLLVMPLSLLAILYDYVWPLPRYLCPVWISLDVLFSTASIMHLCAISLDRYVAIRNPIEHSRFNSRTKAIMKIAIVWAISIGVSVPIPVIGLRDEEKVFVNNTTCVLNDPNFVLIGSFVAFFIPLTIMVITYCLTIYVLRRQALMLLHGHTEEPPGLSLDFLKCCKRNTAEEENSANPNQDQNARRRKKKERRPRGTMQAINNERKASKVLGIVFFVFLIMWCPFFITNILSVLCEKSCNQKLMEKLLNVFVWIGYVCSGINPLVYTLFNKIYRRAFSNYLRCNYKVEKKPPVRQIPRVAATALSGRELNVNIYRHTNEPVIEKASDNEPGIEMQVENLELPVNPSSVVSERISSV
How it was run: as §1

Serotoninergic 5-HT2A = Serotoninergic 5-HT2A (Homo sapiens, UniProt P28223); experiment: competitive radioligand binding, Serotoninergic 5-HT2A; details: read-out: radio-labelled ligand displacement, Serotoninergic 5-HT2A
Serotoninergic 5-HT2A, sequence (P28223 whole entry): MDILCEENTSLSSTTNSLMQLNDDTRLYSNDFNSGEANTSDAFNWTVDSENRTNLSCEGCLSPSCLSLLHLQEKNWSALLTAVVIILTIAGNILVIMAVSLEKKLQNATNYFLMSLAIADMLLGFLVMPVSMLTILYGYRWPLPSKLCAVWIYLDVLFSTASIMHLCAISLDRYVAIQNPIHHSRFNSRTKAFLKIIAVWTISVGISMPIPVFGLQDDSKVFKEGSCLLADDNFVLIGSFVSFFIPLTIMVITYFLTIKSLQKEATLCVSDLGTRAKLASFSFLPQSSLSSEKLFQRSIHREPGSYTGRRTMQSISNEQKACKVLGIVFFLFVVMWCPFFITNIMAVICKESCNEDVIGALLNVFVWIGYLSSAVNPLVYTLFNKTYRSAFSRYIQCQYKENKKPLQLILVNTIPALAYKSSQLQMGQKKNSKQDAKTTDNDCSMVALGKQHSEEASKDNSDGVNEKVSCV
How it was run: as §1

Histaminergic H2 = Histaminergic H2 (Homo sapiens, UniProt P25021); experiment: competitive radioligand binding, Histaminergic H2; details: compound concentration of 1 μM; read-out: radio-labelled ligand displacement, Histaminergic H2
Histaminergic H2, sequence (P25021 whole entry): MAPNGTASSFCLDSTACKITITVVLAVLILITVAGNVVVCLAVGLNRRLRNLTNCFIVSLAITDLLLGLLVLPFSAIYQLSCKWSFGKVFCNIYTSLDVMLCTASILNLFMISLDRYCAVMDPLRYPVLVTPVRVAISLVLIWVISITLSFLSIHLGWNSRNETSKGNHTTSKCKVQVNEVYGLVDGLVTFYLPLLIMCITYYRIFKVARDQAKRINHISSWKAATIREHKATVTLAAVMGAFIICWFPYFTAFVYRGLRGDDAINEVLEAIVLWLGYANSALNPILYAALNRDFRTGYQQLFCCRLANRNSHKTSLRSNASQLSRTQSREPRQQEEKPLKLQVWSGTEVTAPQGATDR
How it was run: as §1

Adrenergic α2A = target: T3, Adrenergic α2A (Homo sapiens, UniProt P08913); experiment: competitive radioligand binding, Adrenergic α2A; details: read-out: radio-labelled ligand displacement, Adrenergic α2A
T3 sequence (P08913 1-465): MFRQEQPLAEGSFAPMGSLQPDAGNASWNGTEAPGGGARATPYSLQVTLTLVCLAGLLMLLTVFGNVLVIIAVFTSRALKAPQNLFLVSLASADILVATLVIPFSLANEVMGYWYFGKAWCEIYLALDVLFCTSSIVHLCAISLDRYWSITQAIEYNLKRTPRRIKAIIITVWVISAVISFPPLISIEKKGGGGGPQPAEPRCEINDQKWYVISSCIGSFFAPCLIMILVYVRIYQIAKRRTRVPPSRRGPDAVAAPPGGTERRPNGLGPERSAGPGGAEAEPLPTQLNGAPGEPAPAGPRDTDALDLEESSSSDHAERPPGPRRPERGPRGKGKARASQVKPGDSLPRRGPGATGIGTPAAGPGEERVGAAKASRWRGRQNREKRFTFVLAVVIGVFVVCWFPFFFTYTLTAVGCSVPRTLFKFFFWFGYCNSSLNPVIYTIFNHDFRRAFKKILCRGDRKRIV
How it was run: as §1

Histaminergic H3, sequence (Q9Y5N1 whole entry): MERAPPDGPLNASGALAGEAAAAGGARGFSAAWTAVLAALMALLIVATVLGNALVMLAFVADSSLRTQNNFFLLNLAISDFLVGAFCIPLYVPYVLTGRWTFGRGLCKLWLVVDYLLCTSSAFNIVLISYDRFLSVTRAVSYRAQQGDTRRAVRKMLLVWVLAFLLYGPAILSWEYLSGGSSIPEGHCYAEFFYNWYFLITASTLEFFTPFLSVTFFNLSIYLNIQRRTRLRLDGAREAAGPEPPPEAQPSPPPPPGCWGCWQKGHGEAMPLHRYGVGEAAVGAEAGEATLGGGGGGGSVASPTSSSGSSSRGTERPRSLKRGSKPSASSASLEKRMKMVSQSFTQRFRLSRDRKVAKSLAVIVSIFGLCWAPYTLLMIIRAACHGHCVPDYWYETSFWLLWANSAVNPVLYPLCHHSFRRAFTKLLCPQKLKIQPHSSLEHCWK

Structure (SMILES) | inhibition at 1 µM (Histaminergic H3) | inhibition at 1 µM (Dopaminergic D3) | inhibition at 1 µM (Dopaminergic D2S) | inhibition at 1 µM (Adrenergic α1D) | radio-labelled ligand displacement, Adrenergic α1B (Adrenergic α1B) | inhibition at 1 µM (Dopaminergic D2L) | radio-labelled ligand displacement, Serotoninergic 5-HT1B (Serotoninergic 5-HT1B) | inhibition at 1 µM (Serotoninergic 5-HT2B) | inhibition at 1 µM (Dopaminergic D1) | inhibition at 1 µM (Serotoninergic 5-HT7) | inhibition at 1 µM (Serotoninergic 5-HT6) | inhibition at 1 µM (Serotoninergic 5-HT2C) | inhibition at 1 µM (Serotoninergic 5-HT2A) | inhibition at 1 µM (Histaminergic H2) | inhibition at 1 µM (Adrenergic α2A)
Cc1cc2c3c(n(CCc4ccccc4)c2s1)CCN(C)C3.Cl [3.6(1)•HCl, 2,5-Dimethyl-8-(2-phenylethyl)-5,6,7,8-tetrahydro-4H-thieno[3′,2′:4,5]pyrrolo[3,2-c]pyridine hydrochloride] | -17% | 73% | 86% | 92% | 99% | 87% | 47% | 92% | 70% | 99% | 103% | 99% | 101% | 96% | 100%
Cc1cc2c3c(n(Cc4ccccc4)c2s1)CC1CCC3N1C (stereo not drawn) [3.13(1)•HCl, 9-benzyl-2,10-dimethyl-4,5,6,7,8,9-hexahydro-4,7-epiminocyclohepta[b]thieno[3,2-d]pyrrole] | 12% | 21% | 25% | 43% | 69% | 37% | 20% | 90% | 40% | 79% | 67% | 81% | 95% | 70% | 65%

Reference: patent publication US20130267551A1, “SUBSTITUTED HYDROGENATED THIENO-PYRROLO[3,2-C]PYRIDINE, LIGANDS, A PHARMACEUTICAL COMPOSITION AND A METHOD FOR USING THE ABOVE” (ALLA CHEM, LLC, priority 2010, published 2013)
